Assay results taken from ChEMBL document CHEMBL1131285, “Quinolines as potent 5-lipoxygenase inhibitors: synthesis and biological profile of L-746,530” (Bioorg Med Chem Lett, 1998).

Columns and labels:
[1] = species on record: Homo sapiens; assay: Compound was evaluated for in vitro inhibition of leukotriene (LTB4) in human whole blood (HWB); format: functional
[2] = biological target: T1, Polyunsaturated fatty acid 5-lipoxygenase (Homo sapiens, UniProt P09917); assay: Compound was evaluated for in vitro inhibition of recombinant human 5-lipoxygenase (5-LO)
T1 sequence (P09917 whole entry): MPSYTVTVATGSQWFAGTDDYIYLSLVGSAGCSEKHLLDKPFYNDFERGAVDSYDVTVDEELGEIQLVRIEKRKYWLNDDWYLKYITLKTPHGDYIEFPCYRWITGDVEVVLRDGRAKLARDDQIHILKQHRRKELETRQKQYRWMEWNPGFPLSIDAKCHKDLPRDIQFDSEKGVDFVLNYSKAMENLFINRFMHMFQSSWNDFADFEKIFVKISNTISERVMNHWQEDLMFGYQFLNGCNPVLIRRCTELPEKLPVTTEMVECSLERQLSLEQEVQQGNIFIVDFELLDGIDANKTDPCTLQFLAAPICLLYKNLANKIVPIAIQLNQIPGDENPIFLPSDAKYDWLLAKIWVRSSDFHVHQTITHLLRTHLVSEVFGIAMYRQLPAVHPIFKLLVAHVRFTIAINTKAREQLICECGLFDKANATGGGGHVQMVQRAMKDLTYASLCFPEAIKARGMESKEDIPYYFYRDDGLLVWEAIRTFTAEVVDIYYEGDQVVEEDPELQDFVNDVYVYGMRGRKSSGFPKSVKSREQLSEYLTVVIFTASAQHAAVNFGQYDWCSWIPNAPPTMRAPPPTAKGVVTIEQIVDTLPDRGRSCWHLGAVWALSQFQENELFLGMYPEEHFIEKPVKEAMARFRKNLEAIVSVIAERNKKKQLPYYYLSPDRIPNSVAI

[3] = Compound was evaluated for in vitro inhibition of leukotriene (LTB4) in human peripheral blood polymorphonuclear leukocytes (HPMN); format: functional
[4] = test system: Rattus norvegicus; assay: The effect on the biosynthesis of leukotriene B4 in vivo was evaluated in the rat pleural cavity using a carrageenan-induced model of inflammation after oral administration at 6 hr; format: functional

Compound | IC50 [1] [nM] | IC50 [2] [nM] | IC50 [3] [nM] | ED50 [4] [mg/kg]
N#Cc1cc(-c2ccoc2)c2ccc(OCc3cccc(C4(O)CC5COC(C4)O5)c3)cc2n1 (stereo not given) | 287 | > 3000 | 10 | 
OC1(c2cccc(COc3ccc4c(-c5ccoc5)cncc4c3)n2)CC2COC(C1)O2 (stereo not given) | 90 | 1460 | 10.3 | 
N#Cc1cc(-c2ccoc2)c2ccc(COc3cc(F)cc(C4(O)CC5COC(C4)O5)c3)cc2n1 (stereo not given) |  |  |  | < 0.1
N#Cc1cc(-c2ccoc2)c2ccc(CSc3cc(F)cc(C4(O)CC5COC(C4)O5)c3)cc2n1 (stereo not given) | 193 | 124 | 6 | 
N#Cc1cc2cc(OCc3cccc(C4(O)CC5COC(C4)O5)n3)ccc2c(-c2ccoc2)n1 (stereo not given) | 47 | 1960 | 18 | 

The next lines start with results.

IC50 [1] [nM] | IC50 [2] [nM] | IC50 [3] [nM] | Compound | ED50 [4] [mg/kg]
103 | 36 | 4 | N#Cc1cc(-c2ccoc2)c2ccc(OCc3cccc(C4(O)CC5COC(C4)O5)n3)cc2n1 (stereo not given) | 
160 | 102 | 5.8 | O=c1cc(-c2ccoc2)c2ccc(OCc3cccc(C4(O)CC5COC(C4)O5)n3)cc2n1Cc1ccccc1 (stereo not given) | 
 |  | 1.6 | N#Cc1cc(-c2ccoc2)c2ccc(OCc3cccc(C4(O)CC5COC(C4)O5)n3)cc2c1 (stereo not given) | 
